Data as given in ChEMBL document CHEMBL1133097, “N-Terminal dipeptides of D(-)-penicillamine as sequestration agents for acetaldehyde” (2000).

How the values were obtained:
[1] = Percent inhibition in hepatocyte culture system at 1/20 molar concentration of ethanol and lowered concentration of ethanol-derived AcH; assay type: functional, Rattus norvegicus
[2] = Percent inhibition in hepatocyte culture system in the presence of cyanamide at 1/20 molar concentration of ethanol and lowered concentration of ethanol-derived AcH; assay type: functional, Rattus norvegicus

C[C@H](NC(=O)[C@H](N)C(C)(C)S)C(=O)O.Cl
Inhibition [1]: 84%

CC(C)(NC(=O)[C@H](N)C(C)(C)S)C(=O)O.Cl
Inhibition [2]: 37%

CC(C)(S)[C@@H](N)C(=O)NCC(=O)O.Cl
Inhibition [2]: 33% | Inhibition [1]: 79%
